# From patent publication US20100184853A1, “TERPENES WITH ANTIFUNGAL ACTIVITY AGAINST MALASSEZIA YEASTS” (INSTITUTO BIOMAR, S.A., priority 2007, published 2010)
# Tested on: Malassezia furfur CBS 1878
# Experiment: Antifungal disk diffusion susceptibility test
# Format: cell-based
# Details: 15 nmol per 6 mm paper disc; ML2 plates; two days at 30° C.
# Method: Antifungal activity was tested against Malassezia furfur CBS 1878.
# Malassezia furfur was grown on ML2 agar plates containing potato dextrose agar 4.2%, ox bile 0.8%, glycerol 1% (v:v), olive oil 1% (v:v), tween 60 0.5% (v:v) for two days, at 30° C., as stock culture.
# An area of 2 cm^2 of a growing plate of Malassezia furfur stock culture was scraped using a sterile loop. Biomass was homogenated in 1 ml glycerol 20%. A volume of 100 μl of the glycerol homogenate was spread on testing ML2 plates.
# Each test compound was dissolved in distilled water and added on blank paper discs (6 mm, diameter) on the inoculated plates. Plates were incubated for two days at 30° C. Inhibition circles around the discs (halo) were used as activity measure.
# Ketoconazol was used as inhibition control.
# The test was carried out at 15 nmol for each compound. Antifungal activities are shown at table 1.
row,Compound,Halo (inhibition circle around the disc)
1,CO[C@@H]1[C@H](OC(=O)/C=C/C=C/C=C/C=C/C(=O)O)CC[C@]2(CO2)[C@H]1[C@@]1(C)O[C@@H]1CC=C(C)C [Fumagillin],27 mm
2,COC1C(=O)CCC(O)(CCl)C1(O)C1(C)OC1CC=C(C)C (stereo not shown) [Chlovalicin],35 mm
3,CO[C@@H]1C(=O)CC[C@]2(CO2)[C@@]1(O)[C@@]1(C)O[C@@H]1CC=C(C)C [Ovalicin],46 mm
4,CC(=O)N1CCN(c2ccc(OCC3COC(Cn4ccnc4)(c4ccc(Cl)cc4Cl)O3)cc2)CC1 (stereo not shown) [Ketoconazol],23 mm
